# Experiments:
# [1] = system: purified bovine tubulin; experiment: Tubulin polymerization assay (turbidimetric); format: biochemical; conditions: theoretical concentration 10 µM, OD 340 nm, 60 min
# Experimental: The effect of compound 4e on tubulin polymerization was investigated using the cell-free assay which assesses the assembly of purified bovine tubulin by a turbidometric method (Figure 5). Tubulin polymerization results in increased turbidity, which is measured as an increase in the optical density (OD).
# Figure 5 Tubulin polymerization assay for compound 4e at 10 µM compared to paclitaxel (10 µM) and KX2-391 (10 µM) as references, while DMSO (1% v/v) was used as a vehicle control. Purified bovine tubulin and GTP were mixed in a 96-well plate. The polymerization reaction was initiated by warming the solution from 4°C to 37°C. The effect on tubulin assembly was monitored by measuring the optical density (OD) at 340 nm every 30 seconds over 60 min period. The results represent the mean for three separate experiments.
# The assembly of purified bovine tubulin was monitored using the Tubulin Polymerization Assay kit, BK006 (Cytoskeleton Inc., Denver, CO, USA). The assay was carried out in accordance with the manufacturer’s instructions in the assay kit manual using the standard assay conditions. The values reported represent the average values from two independent assays. […] Therefore, tubulin assembly was monitored turbidimetrically at 340 nm at 37°C in a Spectramax 340 PC spectrophotometer (Molecular Devices, Sunnyvale, CA, USA). The absorbance was measured at 30 s intervals for 60 min.
# [2] = system: Etk/BMX; experiment: PamChip tyrosine kinase microarray, Etk/BMX; format: biochemical, human; conditions: 4e 0.1 µM, HL60 lysate
# Experimental: (§1) The changes in kinase activities induced by treatment with 4e were monitored within the HL60 cell lines using PamGene’s (Hertogenbosch, Netherlands) PamChip® peptide microarray profiler, which quantifies the activities of 144 tyrosine kinases (YK) ([29], [30]) (Figure 7). Results are provided as a log fold change (LFC) heatmap and Mean Kinase Statistic. From the LFC it is apparent that compound 4e, at a concentration of 0.1 µM, induced sizable changes to the activity of several kinases within the cell signaling YK profile (Figure 7A).
# (§2) An Upstream Kinase tool was used to generate a putative list of kinases responsible for phosphorylating the phospho-sites on the PamChip (Figure 7B) ([31]). It is an interpretation and is highly dependent on the contents of the underlying phosphorylation databases. A Kinase Score was used for ranking kinases based on their significance and specificity in terms of the set of peptides used for the corresponding kinase. Kinase Statistics indicates the overall change of the peptide set that represents the kinase. Kinase statistics value <0 indicates lower kinase activity in the compound spiked lysate and vice versa ([32], [33]). Table 5 lists the 20 most changed kinases within treated HL60 cell lysates by 0.1 μM 4e, ranked according to their Kinase Score.
# (§3) The compound 4e was spiked into HL60 cell lysate at different concentrations (0.001, 0.01, 0.1, 1, 10 and 50 μM). In addition, DMSO was also spiked in HL60 lysate at low concentration (2% v/v) as control. Samples were profiled on PamGene’s Tyrosine Kinase (PTK) arrays in technical replicates, covering a total of 196 phosphorylation sites. Frozen HL60 cultured cell pellet was sent to PamGene. At PamGene, cells were lysed using a lysis buffer and proteases inhibitors cocktail. Protein concentration was measured using standard Bradford assay as per PamGene SOPs. These lysates were further used for generating the PTK activity profiles. For spiking, 4e was received as powder form and dissolved in DMSO at PamGene facility followed by storing at -20°C in small aliquots. PamGene used its in-house bioinformatics toolbox in combination with other methods to generate hypotheses of signaling pathways.
# [3] = system: JNK1/2/3; experiment: Human phosphokinase array, JNK1/2/3; format: cell-based
# From the text: (§4) The kinome tree representation (Figure 7C), which was generated by raising the Kinase Score cut-off to >1.2, confirmed that, unlike tirbanibulin and our prototype molecule KX1-136, 4e’s effects were more observable on kinases other than the Src family such as the Eph and TEC families. […] Therefore, we screened compound 4e using the Human Phospho-Kinase Array® kit from R&D systems (Minneapolis, MN, USA). In this system, 35 phosphorylated YK and serine-threonine kinase (STK) enzymes in the untreated (control) and treated (test) HL60 cell lysates were captured on nitrocellulose membrane, pre-spotted with phosphokinase-specific capture antibodies, and then visualized by detection antibody cocktails (Figure 8). The difference in the spot intensity between untreated (control) and treated cells is proportional to change in the amount of the phosphorylated protein induced by 4e.
# (§5) The phosphorylation profile of 48 kinases was performed using the Proteome Profiler Human Phospho-Kinase Antibody Array Kit by R&D Systems (Minneapolis, MN, USA) according to the protocol. Briefly, the total cellular protein was extracted using the Lysis buffer and was quantified using Bio-Rad DC Protein Assay kit (Hercules, CA, USA). Nitrocellulose membrane set (A&B), pre-spotted with kinase-specific capture antibodies, were first blocked with Array Buffer-1 at RT for 30 min on a rocking platform shaker. Approximately 600 µg of protein concentrate was diluted in the buffer provided and was added onto the membrane set, and the membranes were incubated overnight at 4°C in an 8-well plate. Subsequently, membranes were washed with Wash Buffer and incubated with appropriate Detection Antibody cocktails for 2 h at RT. Streptavadin-HRP (1:2000) was added onto membranes and incubated for 30 min at RT. Membranes were washed, and Chemiluminescent Detection Reagents 1&2 were applied in equal volumes for detection. The signals were detected on C-DiGit®Blot Scanner (LI-COR, Odyssey Imaging Systems, Lincoln, Nebraska, USA) using Image Studio 5.0 software.
# [4] = system: AKT 1/2/3; experiment: Human phosphokinase array, AKT 1/2/3; format: cell-based
# From the text: as §4, §5
# [5] = system: Ron; experiment: PamChip tyrosine kinase microarray, Ron; format: biochemical, human; conditions: 4e 0.1 µM, HL60 lysate
# Experimental: as §1, §2, §3
# [6] = system: HL60 cells; experiment: Cell cycle analysis (Hoechst 33342, flow cytometry); format: cell-based, human; conditions: HL60, 5 µM, 48 h
# Experimental: The effect of 4e on the distribution of cells in different phases of the cell cycle was determined by flow cytometry using Hoescht 33342 staining in HL60 cells.
# HL60 cells (3.5 x 10^5) were seeded in a 6-well plate, were treated with appropriate concentrations of the test compound after attachment, and were incubated at 37°C for 48 h. The treated cells were then collected and washed twice with ice-cold PBS (1X). The washed cells were fixed using 80% ice cold ethanol and stored at -20°C overnight. Fixed cells were washed twice with PBS before staining with 10 µg of Hoechst 33342 (10 µg/mL; Thermo Fisher Scientific, Inc.) and incubated in the dark for 30 min on ice. Cells were washed again with PBS wash and a minimum total of 20,000 events were collected and analyzed using a BD FACSAria III flow cytometer (BD Biosciences, USA). Flowlogic software version 7.0/7.2.1 (Inivai Technologies Pvt Ltd, Victoria, Australia) was used to obtain the percentage distribution of cells in G1, S, and G2/M phases in the singlet-gated population. For validation purpose, we included KX2-391 as a positive reference in this assay.
# [7] = system: PDGFR[beta]; experiment: PamChip tyrosine kinase microarray, PDGFR[beta]; format: biochemical, human; conditions: 4e 0.1 µM, HL60 lysate
# Experimental: as §1, §2, §3
compound,measurement,setting,value
"O=C(Cc1ccc(NC(=O)c2cccc(Cl)c2)cc1)NCc1ccccc1 [Compound 4e, N-(4-(2-(benzylamino)-2-oxoethyl)phenyl)-3-chlorobenzamide]",effect on tubulin polymerization,[1],did not affect the tubulin polymerization
same,Mean Final Score,[2],1.7640
same,Mean Kinase Statistic,[2],-0.5143
same,Mean Significance Score,[2],1.3079
same,Mean Specificity Score,[2],0.4561
same,"phosphokinase signal after 4e exposure, JNK1/2/3","[3]; HL60 cell lysate, treated",20.91
same,"% Change, JNK1/2/3",[3]; treated vs untreated HL60,-50.61%
same,"Change in Signal, JNK1/2/3",[3]; treated vs untreated HL60,-21.43
same,increased phosphorylation of Akt1/2/3 at Thr308 and Ser473 compared to control,"[4]; HL60, versus no treatment",> 117 fold
same,"phosphokinase signal after 4e exposure, AKT 1/2/3","[4]; HL60 cell lysate, treated",22.29
same,"% Change, AKT 1/2/3",[4]; treated vs untreated HL60,11783.08%
same,"Change in Signal, AKT 1/2/3",[4]; treated vs untreated HL60,22.10
same,Mean Final Score,[5],1.8398
same,Mean Kinase Statistic,[5],-0.6967
same,Mean Significance Score,[5],1.0254
same,Mean Specificity Score,[5],0.8144
same,Apoptosis (cell cycle profile),[6],14.66%
same,G2M population,[6],24.51%
same,Mean Final Score,[7],1.8565
same,Mean Kinase Statistic,[7],-0.5885
same,Mean Significance Score,[7],1.2570
same,Mean Specificity Score,[7],0.5995

# Source: PMC9166630, “SAR Probing of KX2-391 Provided Analogues With Juxtaposed Activity Profile Against Major Oncogenic Kinases” (Frontiers in Oncology, 2022)
